Data: the supplement of paper PMC11061612

Key:
AZD7648 = compound: Cc1cc2ncnn2cc1Nc1ncc2c(n1)n(C1CCOCC1)c(=O)n2C [AZD7648]; details: max 10 µM
Outline: (§1)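 Cancer cell lines in 1536-well plates (7.5 μl DMEM/F12 or RPMI, 10% FBS) were held 24 hours at 37°C and 5% CO2 and then dosed for 72 hours at a final DMSO of typically 0.2%. Viability was taken from CellTiter-Glo 2.0 luminescence, scaled between blank-well and DMSO-well means. Curves were fitted as two-parameter logistic models with a non-linear mixed effects model, from which the single-agent IC50 was taken.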

Crizotinib = compound: C[C@@H](Oc1cc(-c2cnn(C3CCNCC3)c2)cnc1N)c1c(Cl)ccc(F)c1Cl [Crizotinib]; details: max 10 µM
Outline: as §1

Venetoclax = compound: CC1(C)CCC(CN2CCN(c3ccc(C(=O)NS(=O)(=O)c4ccc(NCC5CCOCC5)c([N+](=O)[O-])c4)c(Oc4cnc5[nH]ccc5c4)c3)CC2)=C(c2ccc(Cl)cc2)C1 [Venetoclax]; details: max 1 µM
Outline: as §1

Prexasertib = compound: COc1cccc(OCCCN)c1-c1cc(Nc2cnc(C#N)cn2)n[nH]1 [Prexasertib]; details: max 1 µM
Outline: as §1

AZD4320 = compound: CN(CC[C@H](CSC1=CC=CC=C1)NC2=C(C=C(C=C2)S(=O)(=O)NC(=O)C3=CC=C(C=C3)N4CCC(CC4)[C@H](C5=CC=CC=C5C6=CC=C(C=C6)Cl)O)S(=O)(=O)C(F)(F)F)CCO [AZD4320]; details: max 1 µM
Outline: as §1

Olaparib = compound: O=C(c1cc(Cc2n[nH]c(=O)c3ccccc23)ccc1F)N1CCN(C(=O)C2CC2)CC1 [Olaparib]; details: max 10 µM
Outline: as §1

AZD5991 = compound: Cc1c2c(nn1C)CSCc1cc(n(C)n1)CSc1cc(c3ccccc3c1)OCCCc1c(C(=O)O)n(C)c3c-2c(Cl)ccc13 [AZD5991]; details: max 1 µM
Outline: as §1

AZD1390 = compound: CC(C)n1c(=O)n(C)c2cnc3cc(F)c(-c4ccc(OCCCN5CCCCC5)nc4)cc3c21 [AZD1390]; details: max 0.3 µM
Outline: as §1

Selumetinib = compound: Cn1cnc2c(F)c(Nc3ccc(Br)cc3Cl)c(C(=O)NOCCO)cc21 [Selumetinib]; details: max 10 µM
Outline: as §1

AZD8186 = compound: C[C@@H](Nc1cc(F)cc(F)c1)c1cc(C(=O)N(C)C)cc2c(=O)cc(N3CCOCC3)oc12 [AZD8186]; details: max 3 µM
Outline: as §1

Capivasertib = compound: C1CN(CCC1(C(=O)N[C@@H](CCO)C2=CC=C(C=C2)Cl)N)C3=NC=NC4=C3C=CN4 [Capivasertib]; details: max 10 µM
Outline: as §1

AZD5153 = compound: COc1nnc2ccc(N3CCC(c4ccc(OCCN5CCN(C)C(=O)[C@H]5C)cc4)CC3)nn12 [AZD5153]; details: max 1 µM
Outline: as §1

Gefitinib = compound: COc1cc2ncnc(Nc3ccc(F)c(Cl)c3)c2cc1OCCCN1CCOCC1 [Gefitinib]; details: max 10 µM
Outline: as §1

Doxorubicin = compound: COc1cccc2c1C(=O)c1c(O)c3c(c(O)c1C2=O)C[C@@](O)(C(=O)CO)C[C@@H]3O[C@H]1C[C@H](N)[C@H](O)[C@H](C)O1 [Doxorubicin]; details: max 1 µM
Outline: as §1

AZD6738 = compound: C[C@@H]1COCCN1C2=NC(=NC(=C2)C3(CC3)[S@](=N)(=O)C)C4=C5C=CNC5=NC=C4 [AZD6738]; details: max 10 µM
Outline: as §1

Taselisib = compound: Cc1nc(-c2cn3c(n2)-c2ccc(-c4cnn(C(C)(C)C(N)=O)c4)cc2OCC3)n(C(C)C)n1 [Taselisib]; details: max 10 µM
Outline: as §1

SG3199 = compound: CC1=CN2[C@@H](C1)C=NC3=CC(=C(C=C3C2=O)OC)OCCCCCOC4=C(C=C5C(=C4)N=C[C@@H]6CC(=CN6C5=O)C)OC [SG3199]; details: max 0.001 µM
Outline: as §1

SN-38 = compound: CCc1c2c(nc3ccc(O)cc13)-c1cc3c(c(=O)n1C2)COC(=O)[C@]3(O)CC [SN-38]; details: max 0.3 µM
Outline: as §1

AZD2811 = compound: CCN(CCO)CCCOc1ccc2c(Nc3cc(CC(=O)Nc4cccc(F)c4)[nH]n3)ncnc2c1 [AZD2811]; details: max 1 µM
Outline: as §1

Lapatinib = compound: CS(=O)(=O)CCNCc1ccc(-c2ccc3ncnc(Nc4ccc(OCc5cccc(F)c5)c(Cl)c4)c3c2)o1 [Lapatinib]; details: max 10 µM
Outline: as §1

AZD0156 = compound: CN(C)CCCOc1ccc(-c2ccc3ncc4c(c3c2)n(C2CCOCC2)c(=O)n4C)cn1 [AZD0156]; details: max 3 µM
Outline: as §1

AZD1775 = compound: C=CCn1c(=O)c2cnc(Nc3ccc(N4CCN(C)CC4)cc3)nc2n1-c1cccc(C(C)(C)O)n1 [AZD1775]; details: max 3 µM
Outline: as §1

Alisertib = compound: COc1cc(Nc2ncc3c(n2)-c2ccc(Cl)cc2C(c2c(F)cccc2OC)=NC3)ccc1C(=O)O [Alisertib]; details: max 10 µM
Outline: as §1

Dasatinib = compound: CC1=C(C(=CC=C1)Cl)NC(=O)C2=CN=C(S2)NC3=CC(=NC(=N3)C)N4CCN(CC4)CCO [Dasatinib]; details: max 2 µM
Outline: as §1

Palbociclib = compound: CC(=O)c1c(C)c2cnc(Nc3ccc(N4CCNCC4)cn3)nc2n(C2CCCC2)c1=O [Palbociclib]; details: max 10 µM
Outline: as §1

Trametinib = compound: CC(=O)Nc1cccc(-n2c(=O)n(C3CC3)c(=O)c3c(Nc4ccc(I)cc4F)n(C)c(=O)c(C)c32)c1 [Trametinib]; details: max 1 µM
Outline: as §1

Savolitinib = compound: C[C@@H](c1ccc2nccn2c1)n1nnc2ncc(-c3cnn(C)c3)nc21 [Savolitinib]; details: max 1 µM
Outline: as §1

MK-2206 = compound: NC1(c2ccc(-c3nc4ccn5c(=O)[nH]nc5c4cc3-c3ccccc3)cc2)CCC1 [MK-2206]; details: max 10 µM
Outline: as §1

Cell Line	IC50, cell viability 72 h (AZD7648) [nM]	IC50, cell viability 72 h (Crizotinib) [nM]	IC50, cell viability 72 h (Venetoclax) [nM]	IC50, cell viability 72 h (Prexasertib) [nM]	IC50, cell viability 72 h (AZD4320) [nM]	IC50, cell viability 72 h (Olaparib) [nM]	IC50, cell viability 72 h (AZD5991) [nM]	IC50, cell viability 72 h (AZD1390) [nM]	IC50, cell viability 72 h (Selumetinib) [nM]	IC50, cell viability 72 h (AZD8186) [nM]	IC50, cell viability 72 h (Capivasertib) [nM]	IC50, cell viability 72 h (AZD5153) [nM]	IC50, cell viability 72 h (Gefitinib) [nM]	IC50, cell viability 72 h (Doxorubicin) [nM]	IC50, cell viability 72 h (AZD6738) [nM]	IC50, cell viability 72 h (Taselisib) [nM]	IC50, cell viability 72 h (SG3199) [nM]	IC50, cell viability 72 h (SN-38) [nM]	IC50, cell viability 72 h (AZD2811) [nM]	IC50, cell viability 72 h (Lapatinib) [nM]	IC50, cell viability 72 h (AZD0156) [nM]	IC50, cell viability 72 h (AZD1775) [nM]	IC50, cell viability 72 h (Alisertib) [nM]	IC50, cell viability 72 h (Dasatinib) [nM]	IC50, cell viability 72 h (Palbociclib) [nM]	IC50, cell viability 72 h (Trametinib) [nM]	IC50, cell viability 72 h (Savolitinib) [nM]	IC50, cell viability 72 h (MK-2206) [nM]
MS751 (Cervical Carcinoma)	> 10000	> 10000	> 1000	> 1000	> 1000	> 10000	222	> 300	> 10000	> 3000	> 10000	200	> 10000	> 1000	> 10000	> 10000	> 1	36.8	> 1000	> 10000	> 3000	1620	1130	> 2000	> 10000	> 1000	> 1000	
PANC-08-13 (Pancreatic Carcinoma)	> 10000	> 10000	> 1000	460	> 1000	> 10000	> 1000	> 300	> 10000	> 3000	> 10000	350	> 10000	> 1000	> 10000	6440	> 1	> 300	> 1000	> 10000	> 3000	> 3000	> 10000	> 2000	> 10000	> 1000	> 1000	
SU-DHL-8 (B-Cell Non-Hodgkin's Lymphoma)	> 10000	> 10000	> 1000	7.48	38.7	> 10000	144	> 300	> 10000	> 3000	> 10000	684	> 10000	107	2060	> 10000	> 1	3.04	> 1000	> 10000	> 3000	155	6600	> 2000	> 10000	> 1000	> 1000	
TC-71 (Ewing's Sarcoma)	> 10000	6700	> 1000	50.4	278	> 10000	> 1000	> 300	> 10000	> 3000	> 10000	224	> 10000	812	2740	4200	> 1	2.21	114	> 10000	> 3000	1310	1030	> 2000	> 10000	> 1000	> 1000	> 10000
TE-6 (Esophageal Squamous Cell Carcinoma)	> 10000	> 10000	> 1000	893	> 1000	> 10000	940	> 300	> 10000	> 3000	2840	396	1750	> 1000	9320	245	> 1	> 300	> 1000	3400	> 3000	> 3000	6000	> 2000	> 10000	> 1000	> 1000	6610
TOV-112D (Ovarian Carcinoma)	> 10000	> 10000	> 1000	353	> 1000	> 10000	> 1000	> 300	> 10000	> 3000	> 10000	298	> 10000	262	6940	> 10000	> 1	8.03	> 1000	> 10000	> 3000	1260	4320	> 2000	> 10000	> 1000	> 1000	
U251 (Low Grade Glioma)	> 10000	> 10000	> 1000	323	> 1000	> 10000	> 1000	> 300	> 10000	> 3000	> 10000	> 1000	> 10000	> 1000	> 10000	> 10000	> 1	13.1	> 1000	> 10000	> 3000	> 3000	> 10000	> 2000	> 10000	> 1000	> 1000	> 10000
